System: HFL-1 cells
Assay: antifibrotic drug efficacy model on lung fibrosis bionic chip, immunofluorescence staining
Format: cell-based, human
Conditions: TGF-β-induced HFL-1 on dynamic hydrogel with laser dynamic response
Method: Using the dynamic hydrogel obtained from different crosslinking times as the cell culture substrate for fibrosis models (human fetal lung fibroblasts, HFL-1), the expression of α-SMA protein is used as an indicator of myofibroblast differentiation. After culturing the HFL-1 cells for one day, 10 ng/ml of TGF-β is added to stimulate the cells as a control group for α-SMA expression. After two days of culture, a laser device is used to irradiate the cells for 24 hours at frequencies of 0.2 Hz (On-1.5 s/Off-3.5 s) and 0.3 Hz ([…]), respectively. The cells are then fixed and stained for observation. In FIG. 11, “10 min” and “25 min” indicate the fluorescence images of the dynamic hydrogel 5 obtained by UV irradiation for 10 minutes and 25 minutes, respectively.
Furthermore, since ECM remodeling in lung fibrosis patients leads to tissue stiffness, and stiff substrates apply mechanical stress to cells, the activity of YAP occurs through nuclear translocation, with YAP cellular localization depending on mechanical stress. Therefore, HFL-1 cells are cultured in dynamic hydrogels of different hardness (simulating substrates of varying stiffness) and dynamic response environments with laser frequencies to evaluate the effects of substrate hardness and dynamic response on the localization of YAP in lung fibroblasts. […]

## Cc1ccc(=O)n(-c2ccccc2)c1 [pirfenidone]
Pirfenidone 5.3 mM, two days drug, FIG. 13(a)
  expression of the fibrotic marker α-SMA: inhibited
pirfenidone, FIG. 13(b)
  inhibiting the mechanical response marker YAP: less significant effect
